Laboratory results taken from patent US20030083374A1, “NAALADase inhibitors useful as pharmaceutical compounds and compositions” (priority 1998, published 2003).

Legend:
[1] = test system: STZ-induced diabetic rats; experiment: in vivo assay on neuropathic pain in STZ-diabetic rats (Hargreaves); design: species or system Male Sprague-Dawley rats; conditions: 10 mg/kg i.p. daily, started 45 days post-STZ
Protocol: (§1) Male Sprague-Dawley rats (200-225 g) were rendered diabetic by intravenous administration of streptozotocin (STZ, 70 mg/kg in phosphate buffered saline). Diabetic animals were divided into five groups: one group receiving Compound 2 (10 mg/kg or 1 mg/kg), Compound 1 (10 mg/kg or 1 mg/kg) or vehicle. Another group of animals (non-STZ treated) served as non-diabetic controls. Drug/vehicle treatment was started in diabetic animals 45 days post-STZ administration. STZ-induced diabetic rats were tested for sensitivity to a heat source as soon as blood glucose levels rose to 320 mg/dl or above (30 days post STZ). The rats were then acclimated to the Hargreaves apparatus and thermal nociception was monitored using an infrared heat source directed into the […] surface of the hindpaw, and the time taken for the animal to remove its paw noted to the nearest 0.1 seconds (see Hargreaves et al. 1998 for detailed method). The intensity of the beam source was adjusted such that the mean latency for control animals (non-STZ treated) was approximately 10 seconds. Each animal was tested 8 times and the mean difference score (between mean non-diabetic control latency and mean diabetic latency) are graphically presented in FIGS. 19A and 19B.

BB/W diabetic rats [2] = experiment: nerve conduction velocity in BB/W diabetic rats; assay type: in vivo, Male BB/W rats; conditions: 10 mg/kg daily; starting at 8 weeks, through six months
Description: Male BB/W rats (BR1, Mass) spontaneously develop a cell mediated autoimmune destruction of pancreatic B cells, resulting in onset of insulin-dependent (Type I) diabetes (Guberski 1994). […] This renders them valuable for experimental trials of new compounds for future treatments of this major disorder. In the present study, Compound 1 and Compound 2 were examined for their ability to alter the progression of diabetic neuropathy. The rats received daily injection of Compound 1 or Compound 2 (10 mg/kg i.p.) or vehicle, starting at the onset of diabetes (hyperglycemia) and up to 6 months thereafter. Another group of non-diabetic rats also receiving vehicle were tested. All animals were continuously monitored for body weight, urine volume, blood sugar and glycated haemoglobin. In the first month of the study, all animals were tested for thermal nociception in a Hargreaves apparatus, weekly. After the first month this was done biweekly and then monthly. The testing consists of directing an infrared heat source onto the […] surface of the rat hindpaw and noting the time taken for the animal to remove its paw (for detailed method see Hargreaves et al. 1998). […]
Nerve conduction velocity was also measured every two weeks through the first eight weeks of treatment and every month thereafter through to the six months of treatment (see De Koning et al. 1987 for method details). […]

BB/W diabetic rats [3] = experiment: progression of neuropathic pain in BB/W diabetic rats, thermal nociception; assay type: in vivo, Male BB/W rats; conditions: 10 mg/kg i.p. daily; starting after 4 weeks, through six months
Description: Male BB/W rats (BR1, Mass) spontaneously develop a cell mediated autoimmune destruction of pancreatic B cells, resulting in onset of insulin-dependent (Type I) diabetes (Guberski 1994). […] This renders them valuable for experimental trials of new compounds for future treatments of this major disorder. In the present study, Compound 1 and Compound 2 were examined for their ability to alter the progression of diabetic neuropathy. The rats received daily injection of Compound 1 or Compound 2 (10 mg/kg i.p.) or vehicle, starting at the onset of diabetes (hyperglycemia) and up to 6 months thereafter. Another group of non-diabetic rats also receiving vehicle were tested. All animals were continuously monitored for body weight, urine volume, blood sugar and glycated haemoglobin. In the first month of the study, all animals were tested for thermal nociception in a Hargreaves apparatus, weekly. After the first month this was done biweekly and then monthly. The testing consists of directing an infrared heat source onto the […] surface of the rat hindpaw and noting the time taken for the animal to remove its paw (for detailed method see Hargreaves et al. 1998). Each animal was tested 8 times and the mean withdrawal latency noted.

cortical cell cultures = experiment: in vitro assay of NAALADase inhibitors on ischemia in cortical cell cultures; assay type: cell-based; conditions: concentration required to cause a 50% reduction in glutamate toxicity following an ischemic insult (potassium cyanide and 2-deoxyglucose)
Description: Some results are set forth in U.S. Pat. Nos. 5,672,592, 5,795,877, 5,863,536, 5,880,112 and 5,902,817, allowed U.S. patent application Ser. Nos. 08/825,997, 08/833,628, 08/842,360 and 08/899,319 for which the issue fees have been paid, the entire contents of which patents and applications are herein incorporated by reference. Other results are provided below in TABLE III.

[4] = test system: acetic acid (0.6%) induced writhing; experiment: acetic acid model of pain (writhing); assay type: in vivo, mice; conditions: pretreated
Description: One source of neuronal glutamate is thought to derive from the abundant neuropeptide NAAG which is hydrolyzed by NAALADase to liberate free glutamate. The inventors hypothesized that inhibition of NAALADase could limit pain by preventing this source of glutamate. To test this hypothesis, the inventors examined the possible antinocipetive effects of several NAALADase inhibitors in the formalin-, acetic acid- and chronic constrictive injury (CCI; “Bennett model”) models of pain. […] On day 7, 5% formalin was injected into the dorsum of the rat's hindpaw.

STZ-diabetic animals = experiment: motor and sensory nerve conduction velocity in STZ-diabetic animals; assay type: in vivo, rats; conditions: either dose (10 mg/kg or 1 mg/kg); significant after 12 weeks at 10 mg/kg, earlier at 1 mg/kg
Protocol: as §1
Motor and sensory nerve conduction velocity was also measured in STZ-diabetic animals after 4, 8 and 12 weeks of treatment (see De Koning and Gispen 1987 for detailed method). Briefly, stimulating needle electrodes were inserted close to the sciatic and tibial nerves with recording electrodes being placed subcutaneously over the distal foot muscles, in anesthetized rats.

O=C(O)CCC(CCS)C(=O)O (stereo not drawn) [Compound 1, 2-(2-sulfanylethyl)pentanedioic acid]
hyperalgesic response in diabetic rats [1]: completely reversed
nerve conduction deficits vs. diabetic controls receiving vehicle (BB/W diabetic rats [2]): significantly less severe nerve conduction deficits
withdrawal latencies vs. diabetic vehicle-treated rats (BB/W diabetic rats [3]): longer withdrawal latencies
EC50 (cortical cell cultures): 2 nM
acetic acid (0.6%) induced writhing vs. vehicle control [4]: significantly attenuated
motor and sensory nerve conduction velocities vs. diabetic controls (STZ-diabetic animals): increased
